Results published in US12180187B2, “1-phenyl-5-azinylpyrazolyl-3-oxyalkyl acids and their use for controlling unwanted plant growth” (BAYER AKTIENGESELLSCHAFT, priority 2019, dated 2024).

Tests used:
ALOMY [1] = assay: Pre-emergence action against ALOMY, 1280 g/ha; type: in vivo, Alopecurus myosuroides; conditions: visual scoring after about 3 weeks vs untreated controls, 100% = plants have died, 0% = like control plants
Summary of the method: (§1)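 Activity was scored visually as percent versus untreated controls about 3 weeks after treatment (100% = dead plants, 0% = control-like). Compounds, formulated as wettable powders or emulsion concentrates, were sprayed onto the covering soil over freshly sown seeds in sandy loam, with 0.5% additive and 600 L/ha water.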

DIGSA [2] = assay: Pre-emergence action against DIGSA, 1280 g/ha; type: in vivo, Digitaria sanguinalis; conditions: visual scoring after about 3 weeks vs untreated controls, 100% = plants have died, 0% = like control plants
Summary of the method: as §1

ECHCG [3] = assay: Pre-emergence action against ECHCG, 1280 g/ha; type: in vivo, Echinochloa crus-galli; conditions: visual scoring after about 3 weeks vs untreated controls, 100% = plants have died, 0% = like control plants
Summary of the method: as §1

LOLRI [4] = assay: Pre-emergence action against LOLRI, 1280 g/ha; type: in vivo, Lolium rigidum; conditions: visual scoring after about 3 weeks vs untreated controls, 100% = plants have died, 0% = like control plants
Summary of the method: as §1

POAAN [5] = assay: Pre-emergence action against POAAN, 1280 g/ha; type: in vivo, Poa annua; conditions: visual scoring after about 3 weeks vs untreated controls, 100% = plants have died, 0% = like control plants
Summary of the method: as §1

SETVI [6] = assay: Pre-emergence action against SETVI, 1280 g/ha; type: in vivo, Setaria viridis; conditions: visual scoring after about 3 weeks vs untreated controls, 100% = plants have died, 0% = like control plants
Summary of the method: as §1

AMARE [7] = assay: Pre-emergence action against AMARE, 1280 g/ha; type: in vivo, Amaranthus retroflexus; conditions: scored visually after about 3 weeks vs untreated controls (100% = plants have died)
Summary of the method: as §1

KCHSC [8] = assay: Pre-emergence action against KCHSC, 1280 g/ha; type: in vivo, Bassia scoparia; conditions: scored visually after about 3 weeks vs untreated controls (100% = plants have died)
Excerpt: 1. Pre-Emergence Herbicidal Effect and Crop Plant Compatibility a) Seeds of mono- and dicotyledonous weed plants are placed in plastic pots in sandy loam soil (doubly sown with one species each of mono- or dicotyledonous weed plants per pot) and covered with soil. The compounds of the invention, formulated in the form of wettable powders (WP) or as emulsion concentrates (EC), are then applied onto the surface of the covering soil as aqueous suspension or emulsion with addition of 0.5% additive at a water application rate equivalent to 600 litres per hectare. After the treatment, the pots are placed in a greenhouse and kept under good growth conditions for the trial plants. After about 3 weeks, the effect of the preparations is scored visually in comparison with untreated controls as percentages. For example, 100% activity=the plants have died, 0% activity=like control plants. 1. Pre-Emergence Effectiveness Tables 1 to 12 below show the effects of selected compounds of the general formula (I) according to Tables 1 and 2 on various harmful plants and at an application rate corresponding to 1280 g/ha, which were obtained by the experimental procedure mentioned above.

MATIN [9] = assay: Pre-emergence action against MATIN, 1280 g/ha; type: in vivo, Tripleurospermum inodorum (Matricaria inodora); conditions: scored visually after about 3 weeks vs untreated controls (100% = plants have died)
Summary of the method: as §1

STEME [10] = assay: Pre-emergence action against STEME, 1280 g/ha; type: in vivo, Stellaria media; conditions: scored visually after about 3 weeks vs untreated controls (100% = plants have died)
Summary of the method: as §1

VERPE [11] = assay: Pre-emergence action against VERPE, 1280 g/ha; type: in vivo, Veronica persica; conditions: scored visually after about 3 weeks vs untreated controls (100% = plants have died)
Summary of the method: as §1

ALOMY [12] = assay: Post-emergence action against ALOMY, 1.28 kg/ha; type: in vivo, Alopecurus myosuroides; conditions: dosage 1280 g/ha, visual rating about 3 weeks after treatment vs untreated controls
Summary of the method: (§2)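 Weeds grown in sandy loam in a greenhouse were sprayed at the one-leaf stage, 2–3 weeks after sowing, with WP or EC formulations in water containing 0.5% additive at 600 L/ha. About 3 weeks later, damage was scored visually versus untreated controls (0% = like control, 100% = dead).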

DIGSA [13] = assay: Post-emergence action against DIGSA, 1.28 kg/ha; type: in vivo, Digitaria sanguinalis; conditions: dosage 1280 g/ha, visual rating about 3 weeks after treatment vs untreated controls
Summary of the method: as §2

ECHCG [14] = assay: Post-emergence action against ECHCG, 1.28 kg/ha; type: in vivo, Echinochloa crus-galli; conditions: dosage 1280 g/ha, visual rating about 3 weeks after treatment vs untreated controls
Summary of the method: as §2

POAAN [15] = assay: Post-emergence action against POAAN, 1.28 kg/ha; type: in vivo, Poa annua; conditions: dosage 1280 g/ha, visual rating about 3 weeks after treatment vs untreated controls
Summary of the method: as §2

SETVI [16] = assay: Post-emergence action against SETVI, 1.28 kg/ha; type: in vivo, Setaria viridis; conditions: dosage 1280 g/ha, visual rating about 3 weeks after treatment vs untreated controls
Summary of the method: as §2

ABUTH = assay: Post-emergence action against ABUTH, 1.28 kg/ha; type: in vivo, Abutilon theophrasti; conditions: dosage 1280 g/ha, visual rating about 3 weeks after treatment vs untreated controls (100% = plants died)
Summary of the method: as §2

AMARE [17] = assay: Post-emergence action against AMARE, 1.28 kg/ha; type: in vivo, Amaranthus retroflexus; conditions: dosage 1280 g/ha, visual rating about 3 weeks after treatment vs untreated controls (100% = plants died)
Summary of the method: as §2

KCHSC [18] = assay: Post-emergence action against KCHSC, 1.28 kg/ha; type: in vivo, Bassia scoparia; conditions: dosage 1280 g/ha, visual rating about 3 weeks after treatment vs untreated controls (100% = plants died)
Summary of the method: as §2

MATIN [19] = assay: Post-emergence action against MATIN, 1.28 kg/ha; type: in vivo, Tripleurospermum inodorum (Matricaria inodora); conditions: dosage 1280 g/ha, visual rating about 3 weeks after treatment vs untreated controls (100% = plants died)
Summary of the method: as §2

STEME [20] = assay: Post-emergence action against STEME, 1.28 kg/ha; type: in vivo, Stellaria media; conditions: dosage 1280 g/ha, visual rating about 3 weeks after treatment vs untreated controls (100% = plants died)
Summary of the method: as §2

VERPE [21] = assay: Post-emergence action against VERPE, 1.28 kg/ha; type: in vivo, Veronica persica; conditions: dosage 1280 g/ha, visual rating about 3 weeks after treatment vs untreated controls (100% = plants died)
Summary of the method: as §2

LOLRI [22] = assay: Post-emergence action against LOLRI, 1.28 kg/ha; type: in vivo, Lolium rigidum; conditions: dosage 1280 g/ha, visual rating about 3 weeks after treatment vs untreated controls
Summary of the method: as §2

Structure (SMILES) | Pre-emergence action against DIGSA (DIGSA [2]) | Pre-emergence action against ECHCG (ECHCG [3]) | Pre-emergence action against LOLRI (LOLRI [4]) | Pre-emergence action against POAAN (POAAN [5]) | Pre-emergence action against SETVI (SETVI [6]) | Pre-emergence action against AMARE (AMARE [7]) | Pre-emergence action against KCHSC (KCHSC [8]) | Pre-emergence action against MATIN (MATIN [9]) | Pre-emergence action against STEME (STEME [10]) | Pre-emergence action against VERPE (VERPE [11]) | Post-emergence action against ALOMY (ALOMY [12]) | Post-emergence action against DIGSA (DIGSA [13]) | Post-emergence action against ECHCG (ECHCG [14]) | Post-emergence action against POAAN (POAAN [15]) | Post-emergence action against AMARE (AMARE [17]) | Post-emergence action against KCHSC (KCHSC [18]) | Post-emergence action against MATIN (MATIN [19]) | Post-emergence action against STEME (STEME [20]) | Post-emergence action against VERPE (VERPE [21]) | Post-emergence action against LOLRI (LOLRI [22]) | also measured
O=C(O)C1CCCN1C(=O)COc1nn(-c2ccccc2F)c(-c2ccc(F)nc2)c1Br (centres unmarked) [Example X-009] | 90% | 100% | 100% | 100% | 100% | 100% | 90% | 100% | 100% | 100% | 100% | 90% | 100% | 100% | 100% | 90% | 90% | 100% | 100% |  | Pre-emergence action against ALOMY (ALOMY [1]): 100%; Post-emergence action against SETVI (SETVI [16]): 100%; Post-emergence action against ABUTH (ABUTH): 100%
CONC(=O)COc1nn(-c2ccc(F)cc2F)c(-c2ccc(F)nc2)c1Br [Example X-024] | 100% | 100% | 100% | 100% | 100% | 100% | 100% | 100% | 100% | 100% | 100% | 100% | 100% | 100% | 100% | 90% | 90% | 100% | 100% | 100% | Pre-emergence action against ALOMY (ALOMY [1]): 100%; Post-emergence action against SETVI (SETVI [16]): 90%; Post-emergence action against ABUTH (ABUTH): 100%
COC(=O)[C@@H](C)Oc1nn(-c2ccccc2F)c(-c2cncnc2)c1[N+](=O)[O-] [VI-006] | 100% | 100% | 100% | 100% | 100% | 90% | 100% | 100% | 90% | 100% |  | 90% |  | 100% |  | 90% | 100% | 100% | 90% | 100% | 
CCOC(=O)COc1nn(-c2ccc(F)cc2)c(-c2ccc(F)nc2)c1C(F)(F)F [VII-059] | 100% | 100% | 100% | 100% | 100% | 100% | 100% | 90% | 100% | 100% | 100% | 100% | 100% | 100% | 100% | 100% | 100% | 100% | 90% | 100% | Pre-emergence action against ALOMY (ALOMY [1]): 100%
CCOC(=O)COc1nn(-c2ccc(F)cc2)c(-c2ccc(F)nc2)c1Br [VII-065] | 100% | 100% | 100% | 100% | 100% | 100% | 100% | 90% | 100% | 100% | 100% | 100% | 100% | 100% | 90% | 100% | 100% | 100% | 90% | 90% | Pre-emergence action against ALOMY (ALOMY [1]): 100%; Post-emergence action against SETVI (SETVI [16]): 90%; Post-emergence action against ABUTH (ABUTH): 90%
O=C(O)COc1nn(-c2ccc(F)cc2)c(-c2ccc(F)nc2)c1Br [VII-095] | 100% | 100% | 100% | 100% | 100% | 100% | 100% | 90% | 100% | 100% | 100% | 100% | 100% | 100% | 90% | 100% | 100% | 90% | 90% | 100% | Pre-emergence action against ALOMY (ALOMY [1]): 100%; Post-emergence action against SETVI (SETVI [16]): 100%
O=C(O)COc1nn(-c2ccc(F)cc2F)c(-c2ccc(F)nc2)c1Br [VII-100] | 90% |  | 100% | 100% | 90% | 100% | 100% | 100% | 100% | 100% | 100% | 90% | 90% | 100% | 100% | 90% | 90% | 100% | 100% | 100% | Post-emergence action against SETVI (SETVI [16]): 100%; Post-emergence action against ABUTH (ABUTH): 90%
